Data set [1] deals with PGE2-induced thermal hypersensitivity. Description: Reversal of prostaglandin E2 (PGE2)-induced thermal hypersensitivity, warm-water tail withdrawal. The format is in vivo, Sprague-Dawley rats. Particulars: single oral (PO) dose before PGE2 injection into tail, assessed 30 min after PGE2, SEM in parentheses. As for the experimental part:
The compounds of the present invention were evaluated for their effectiveness to treat pain. […] The test methods used herein have been used by others skilled in the art to evaluate the effectiveness of compounds for relieving pain. See e.g., Bennett G J and Xie T K, A peripheral mononeuropathy in rat produces disorders of pain sensation like those seen in man, Pain 33: 87-107 (1988); Chaplan S R, Bach […], Chung J M and Yaksh T L, Quantitative assessment of tactile allodynia in the rat paw, J. Neurosci. Methods 53: 55-63 (1994); and Mosconi T and Kruger L, Fixed-diameter polyethylene cuffs applied to the rat sciatic nerve induce a painful neuropathy: ultrastructural morphometric analysis of axonal alterations Pain 64: 37-57 (1996). Individually housed Sprague-Dawley rats had free access to rat chow and water. A 12-h light/12-h dark cycle was in effect (lights on from 6:00 am to 6:00 pm). Animal maintenance and research were conducted in accordance with the guidelines provided by the National Institutes of Health Committee on Laboratory Animal Resources. These subjects were used in the tests below. The terminal 10 cm of the tail was placed into a thermos bottle containing water warmed to 38, 42, 46, 50 or 54° C. The latency in seconds for the animal to remove the tail from the water was used as a measure of nociception. […] Temperature-effect curves were generated before (baseline) and 30 minutes after the PGE2 injection. […] The ability of compounds to reverse PGE2-induced thermal hypersensitivity was assessed using a single dose time-course procedure. […] sensitivity was assessed 30 min after PGE2 injection. Data Analysis-The temperature that produced a half-maximal increase in the tail-withdrawal latency (i.e., T10) was calculated from each temperature-effect curve. The T10 was determined by interpolation from a line drawn between the point above and the point below 10 sec on the temperature-effect curve.

Marks after values point to notes of the source that are not given here.

Consider eight molecules from patent US7879825B2, “Derivatives of [2-(8,9-dioxo-2,6-diazabicyclo[5.2.0]non-1(7)-en-2-yl)alkyl] phosphonic acid and methods of use thereof” (Wyeth LLC, priority 2003, dated 2011).

As a reminder, the melting point is the temperature of the solid-liquid transition.

Regarding `O=c1c2c(c1=O)N(CCP(=O)(O)O)CCCN2` [Comparative 1, [2-(8,9-dioxo-2,6-diazabicyclo[5.2.0]non-1(7)-en-2-yl)ethyl]phosphonic acid, reference compound], the “Reversal of PGE2-induced thermal hypersensitivity, % MPE (±1 SEM)” value (“Reversal … % MPE (±1 SEM)” below) in data set [1] (10 mg/kg) is −4.7 (10.6)** % MPE; in data set [1] (30 mg/kg), 44 (9.5) % MPE.
Take `O=C(OCOP(=O)(CCN1CCCNc2c1c(=O)c2=O)OCOC(=O)c1ccccc1)c1ccccc1` [Example 1, 3-{2-[8,9-Dioxo-2,6-diazabicyclo[5.2.0]non-1(7)-en-2-yl]ethyl}-3-oxido-7-oxo-7-phenyl-2,4,6-trioxa-3-phosphahept-1-yl benzoate]: the “Reversal … % MPE (±1 SEM)” value is listed as 57.2 (4.7) % MPE in data set [1] (10 mg/kg) and 81 (3.4) % MPE in data set [1] (30 mg/kg).
The matching figures for `CCCC(CCC)C(=O)OCOP(=O)(CCN1CCCNc2c1c(=O)c2=O)OCOC(=O)C(CCC)CCC` [Example 2, 3-{2-[8,9-Dioxo-2,6-diazabicyclo[5.2.0]non-1(7)-en-2-yl]ethyl}-3-oxido-7-oxo-8-propyl-2,4,6-trioxa-3-Phosphaundec-1-yl 2-propylpentanoate]: 45.6 (13.9) % MPE and 76.5 (3.3) % MPE.
In the case of `CC(C)(C)C(=O)OCOC(CCN1CCCNc2c1c(=O)c2=O)(O[PH2]=O)OC(=O)C(C)(C)C` (stereo not shown) [Example 3, 2,2-Dimethyl-propionic acid (2,2-dimethyl-propionyloxymethoxy)-[2-(8,9-dioxo-2,6-diaza-bicyclo[5.2.0]non-1(7)-en-2-yl)-ethyl]-phosphinoyloxymethyl ester], the “Reversal … % MPE (±1 SEM)” value in data set [1] (30 mg/kg) is 87.6 (3.3) % MPE.
As for `CC(OC(=O)C1CCCCC1)OP(=O)(CCN1CCCNc2c1c(=O)c2=O)OC(C)OC(=O)C1CCCCC1` (stereo not shown) [Example 4, 7-Cyclohexyl-3-{2-[8,9-dioxo-2,6-diazabicyclo[5.2.0]non-1(7)-en-2-yl]ethyl}-1,5-dimethyl-3-oxido-7-oxo-2,4,6-trioxa-3-phosphahept-1-yl cyclohexanecarboxylate], in data set [1] (30 mg/kg), the “Reversal … % MPE (±1 SEM)” value is recorded as 78.9 (5.8) % MPE.
Still for that read-out and setting: in the case of `CC(OC(=O)C1CCCCC1)OP(=O)(CCN1CCCNc2c1c(=O)c2=O)OC(C)OC(=O)C1CCCCC1` (stereo not shown) [Example 5, 7-cyclohexyl-3-{2-[8,9-dioxo-2,6-diazabicyclo[5.2.0]non-1(7)-en-2-yl]ethyl}-1,5-dimethyl-3-oxido-7-oxo-2,4,6-trioxa-3-phosphahept-1-yl cyclohexanecarboxylate] it was 55.9 (9.8) % MPE.
For `O=C(OCOP(=O)(CCN1CCCNc2c1c(=O)c2=O)OCOC(=O)C1CCCCC1)C1CCCCC1` [Example 6, 7-Cyclohexyl-3-{2-[8,9-dioxo-2,6-diazabicyclo[5.2.0]non-1(7)-en-2-yl]ethyl}-3-oxido-7-oxo-2,4,6-trioxa-3-phosphahept-1-yl cyclohexanecarboxylate], the melting point was 64 to 65 °C. The “Reversal … % MPE (±1 SEM)” value in data set [1] (30 mg/kg) is recorded as 16.8 (6.8) % MPE.
On to `CC(C)OC(=O)OCOP(=O)(CCN1CCCNc2c1c(=O)c2=O)OCOC(=O)OC(C)C` [Example 7, [2-(8,9-Dioxo-2,6-diaza-bicyclo[5.2.0]non-1-(7)-en-2-yl)-ethyl]-phosphonic acid diiso propoxycarbonyloxymethyl ester], for which the results for the “Reversal … % MPE (±1 SEM)” value in data set [1] (10 mg/kg) and in data set [1] (30 mg/kg) were 47.0 (12.6) % MPE and 77.5 (6.7) % MPE, respectively.
